Data: the CheMixHub drug solubility set

Assay: xn = mol fraction of the nth substance listed, in the solute-free solvent

NC(N)=C([N+](=O)[O-])[N+](=O)[O-] + CS(C)=O + CCC(C)=O
solubility (g/100 g solution)
Conditions	293.15 K	298.15 K	303.15 K	308.15 K	313.15 K	318.15 K	323.15 K	328.15 K	333.15 K
x2 = 0.1228	2.96	3.02	3.23	3.43	3.66	3.88	4.15	4.41	4.69
x2 = 0.2395	6.6	7.02	7.36	7.71	8.11	8.5	8.9	9.32	9.81
x2 = 0.3506	10.8	11.4	11.7	12.2	12.7	13.1	13.6	14.2	14.8
x2 = 0.4565	14.7	15.3	15.7	16.2	16.7	17.2	17.8	18.4	19
x2 = 0.5575	18.4	19.1	19.6	20	20.6	21.1	21.7	22.4	23
x2 = 0.6539	21.6	22.1	22.7	23.2	23.8	24.4	25	25.6	26.4
x2 = 0.7462	24.1	24.8	25.3	25.7	26.3	26.9	27.5	28.1	28.8
x2 = 0.8344	26.2	26.7	27.2	27.7	28.2	28.8	29.4	30	30.7
x2 = 0.9189	27.9	28.7	29.2	29.6	30.1	30.6	31.2	31.9	32.5

c1ccc2c(c1)CCc1ccccc1N2 + CS(C)=O + O
solubility (g/100 g solution)
Conditions	x2 = 0.02506	x2 = 0.0546	x2 = 0.08995	x2 = 0.1286	x2 = 0.1882	x2 = 0.2567	x2 = 0.3485	x2 = 0.4779	x2 = 0.665
293.15 K	0.237	2.56	6.27	6.04	5.43	5.01	4.74	5.59	6.04
298.15 K	0.323	3.31	7.85	7.49	6.85	6.32	5.77	6.8	7.23
303.15 K	0.412	4.04	9.35	8.95	8.16	7.51	6.86	8.1	8.7
308.15 K	0.544	5.06	11.4	10.8	9.87	8.98	8.2	9.64	10.2
313.15 K	0.69	6.11	13.3	12.7	11.6	10.5	9.62	11.2	11.7
318.15 K	0.878	7.39	15.7	14.9	13.7	12.4	11.2	12.8	13.4
323.15 K	1.11	8.88	18.2	17.2	15.8	14.3	13	14.6	15.1
328.15 K	1.39	10.5	21	19.9	18.1	16.5	14.9	16.5	17.1

NC(N)=C([N+](=O)[O-])[N+](=O)[O-] + CS(C)=O + O=C1CCCC1
solubility (g/100 g solution)
Conditions	293.15 K	298.15 K	303.15 K	308.15 K	313.15 K	318.15 K	323.15 K	328.15 K	333.15 K
x2 = 0.1177	3.67	3.8	4.06	4.31	4.57	4.86	5.16	5.5	5.84
x2 = 0.2308	7.45	7.83	8.19	8.56	8.97	9.37	9.83	10.2	10.7
x2 = 0.3397	11.5	12.1	12.6	13	13.5	14	14.5	15	15.6
x2 = 0.4445	15.2	15.8	16.2	16.6	17.1	17.6	18.3	18.9	19.5
x2 = 0.5455	18.5	19.2	19.7	20.1	20.6	21.1	21.7	22.3	22.9
x2 = 0.6429	21.3	21.9	22.4	22.9	23.4	24	24.6	25.1	25.8
x2 = 0.7369	23.8	24.6	25	25.5	26.1	26.6	27.2	27.8	28.5
x2 = 0.8276	26	26.5	27	27.4	28.1	28.6	29.2	29.8	30.4
x2 = 0.9153	27.7	28.5	29	29.4	30	30.5	31.1	31.8	32.4

Nc1ncn(C2OC(CO)C(O)C2O)c(=O)n1 (stereo not drawn) + O + CC(C)O
solubility (g/100 g solution)
Conditions	278.15 K	283.15 K	288.15 K	293.15 K	298.15 K	303.15 K	308.15 K	313.15 K	318.15 K
x2 = 0.4546	0.0657	0.0837	0.104	0.126	0.152	0.187	0.227	0.276	0.336
x2 = 0.6897	0.152	0.192	0.238	0.293	0.351	0.421	0.502	0.601	0.714
x2 = 0.8334	0.275	0.349	0.429	0.516	0.613	0.717	0.851	0.997	1.17
x2 = 0.9303	0.455	0.57	0.693	0.836	0.979	1.14	1.31	1.52	1.75

Nc1ncn(C2OC(CO)C(O)C2O)c(=O)n1 (stereo not drawn) + O + CCCO
solubility (g/100 g solution)
Conditions	278.15 K	283.15 K	288.15 K	293.15 K	298.15 K	303.15 K	308.15 K	313.15 K	318.15 K
x2 = 0.4546	0.0722	0.0869	0.104	0.124	0.149	0.177	0.208	0.241	0.279
x2 = 0.6897	0.165	0.201	0.249	0.302	0.359	0.424	0.49	0.562	0.635
x2 = 0.8334	0.298	0.368	0.448	0.54	0.637	0.744	0.852	0.965	1.07
x2 = 0.9303	0.488	0.59	0.72	0.861	1.01	1.17	1.33	1.49	1.66

Nc1ncn(C2OC(CO)C(O)C2O)c(=O)n1 (stereo not drawn) + O + CCO
solubility (g/100 g solution)
Conditions	278.15 K	283.15 K	288.15 K	293.15 K	298.15 K	303.15 K	308.15 K	313.15 K	318.15 K
x2 = 0.3899	0.0889	0.101	0.115	0.133	0.153	0.177	0.206	0.238	0.275
x2 = 0.6302	0.186	0.217	0.255	0.298	0.349	0.406	0.469	0.538	0.618
x2 = 0.7932	0.302	0.369	0.443	0.524	0.614	0.709	0.813	0.924	1.05
x2 = 0.9109	0.498	0.588	0.704	0.836	0.976	1.12	1.28	1.46	1.65

Nc1ncn(C2OC(CO)C(O)C2O)c(=O)n1 (stereo not drawn) + O + CO
solubility (g/100 g solution)
Conditions	278.15 K	283.15 K	288.15 K	293.15 K	298.15 K	303.15 K	308.15 K	313.15 K	318.15 K
x2 = 0.3077	0.0966	0.113	0.129	0.148	0.169	0.194	0.228	0.273	0.324
x2 = 0.5424	0.198	0.229	0.265	0.307	0.359	0.419	0.491	0.575	0.673
x2 = 0.7273	0.335	0.397	0.463	0.542	0.632	0.742	0.869	1	1.14
x2 = 0.8767	0.521	0.634	0.758	0.888	1.02	1.17	1.34	1.52	1.71

Nc1cc(-c2ccncc2)c[nH]c1=O + OCCO + O
solubility (g/100 g solution)
Conditions	278.15 K	283.15 K	288.15 K	293.15 K	298.15 K	303.15 K	308.15 K	313.15 K	318.15 K	323.15 K
x2 = 0.03125	0.000969	0.00114	0.00136	0.0016	0.00188	0.00216	0.00248	0.00283	0.00323	0.00367
x2 = 0.06767	0.00136	0.0016	0.00191	0.00224	0.00262	0.00301	0.00345	0.00393	0.00447	0.00508
x2 = 0.1107	0.00187	0.00221	0.00263	0.0031	0.00358	0.00411	0.00469	0.00542	0.00618	0.00703
x2 = 0.1622	0.00264	0.00312	0.00368	0.00432	0.00505	0.00577	0.00658	0.00746	0.00845	0.00955
x2 = 0.225	0.0034	0.00407	0.00476	0.00562	0.00649	0.00751	0.00852	0.00976	0.0111	0.0126
x2 = 0.3034	0.00444	0.00524	0.00616	0.00725	0.00846	0.00962	0.0109	0.0124	0.014	0.0158
x2 = 0.4038	0.00528	0.00637	0.00751	0.00882	0.0103	0.0117	0.0131	0.0148	0.0168	0.0189
x2 = 0.5373	0.00588	0.00697	0.00817	0.00966	0.0113	0.0128	0.0146	0.0165	0.0186	0.021
x2 = 0.7232	0.00648	0.00764	0.00919	0.0108	0.0123	0.014	0.016	0.0178	0.0199	0.0224
